Legend:
[1] = system: Staphylococcus epidermidis 12228; conditions: Staphylococcus epidermidis 12228, Gram Positive; cited from earlier work
[2] = system: Saccharomyces cerevisiae 2601; conditions: Saccharomyces cerevisiae 2601, Yeast and Mold; cited from earlier work
[3] = system: very virulent strain of Staph; format: cell-based; conditions: calculated from inhibition zone being inversely proportional to MIC
From the text: (§1) An independent medical researcher in Israel obtained a very virulent strain of Staph from a patient at the Shaarei Tzedek Hospital in Jerusalem. […] This Staph strain was utilized as the Staph source, and the otherwise exact test protocol described above was repeated. […] Only one test swatch was used for the Staph evaluation.

[4] = system: Pseudomonas aeruginosa 9027; conditions: Pseudomonas aeruginosa 9027, Gram Negative; cited from earlier work
Escherichia coll 25254 = conditions: Escherichia coll 25254, Gram Negative; cited from earlier work
[5] = system: all Gram Negative bacteria listed in Table 1; conditions: same reasoning applied to PA marker
From the text: as §1

[6] = system: all Gram positive bacteria listed in Table 1; conditions: extrapolated from virulent Staph result
From the text: as §1

[7] = system: Staphylococcus aureus 0927; conditions: Staphylococcus aureus 0927, Gram Positive; cited from earlier work
Micrococcus lutena 9341 = conditions: Micrococcus lutena 9341, Gram Positive; cited from earlier work
[8] = system: Staphylococcus aureus 27543; conditions: Staphylococcus aureus 27543, Gram Positive; cited from earlier work
Candida albicans 16404 = conditions: Candida albicans 16404, Yeast and Mold; cited from earlier work
[9] = system: Streptococcus faecium 10541; conditions: Streptococcus faecium 10541, Gram Positive; cited from earlier work
Escherichia coll 10231 = conditions: Escherichia coll 10231, Gram Negative; cited from earlier work
[10] = system: Streptococcus agalactiae 27956; conditions: Streptococcus agalactiae 27956, Gram Positive; cited from earlier work
[11] = system: Streptococcus-pyogenes 7958; conditions: Streptococcus-pyogenes 7958, Gram Positive; cited from earlier work
Bacillus subtilis 6633 = conditions: Bacillus subtilis 6633, Gram Positive; cited from earlier work
[12] = system: Enterobacter cloacae 13047; conditions: Enterobacter cloacae 13047, Gram Negative; cited from earlier work

Structure (SMILES): [Ag+].[Ag+].[Ag+].[Ag+].[O-2].[O-2].[O-2].[O-2] [Ag4O4, tetrasilver tetroxide]
- MIC (Minimal Inhibitory Concentration) [1]: 0.625 PPM
- MIC (Minimal Inhibitory Concentration) [2]: 1.25 PPM
- MIC for the virulent Staph strain [3]: 40.5-61.0 PPM
- MIC (Minimal Inhibitory Concentration) [4]: 1.25-2.50 PPM
- MIC (Minimal Inhibitory Concentration) (Escherichia coll 25254): 2.50 PPM
- inhibition of all Gram Negative bacteria listed in Table 1 [5]: inhibition
- inhibition of all listed Gram positive bacteria [6]: capable of inhibiting
- MIC (Minimal Inhibitory Concentration) [7]: 2.50-5.00 PPM
- MIC (Minimal Inhibitory Concentration) (Micrococcus lutena 9341): 1.25-2.50 PPM
- MIC (Minimal Inhibitory Concentration) [8]: 5.00 PPM
- MIC (Minimal Inhibitory Concentration) (Candida albicans 16404): 2.50-5.0 PPM
- MIC (Minimal Inhibitory Concentration) [9]: 5.00 PPM
- MIC (Minimal Inhibitory Concentration) (Escherichia coll 10231): 2.50 PPM
- MIC (Minimal Inhibitory Concentration) [10]: 1.25-5.00 PPM
- MIC (Minimal Inhibitory Concentration) [11]: 2.50 PPM
- MIC (Minimal Inhibitory Concentration) (Bacillus subtilis 6633): 5.00 PPM
- MIC (Minimal Inhibitory Concentration) [12]: 2.50 PPM
